# Data published in ChEMBL document CHEMBL1212745, “Structure of the heme biosynthetic Pseudomonas aeruginosa porphobilinogen synthase in complex with the antibiotic alaremycin” (Antimicrob Agents Chemother, 2010).
# Calls of active or inactive are those of the source. No cut-off for these calls is given here.
# Legend:
# Streptomyces coelicolor = test: Antimicrobial activity against Streptomyces coelicolor DMS 40233 up to 24 hrs by microdilution method; format: functional; conditions: DMS 40233, 24 h
# [1] = target: T1, Delta-aminolevulinic acid dehydratase (Bacillus subtilis) (UniProt P30950); test: Inhibition of Bacillus subtilis JH642 porphobilinogen synthase assessed as enzyme activity at 5 mM relative to control; design: scale not given: the % may be the effect or the level left
# T1 sequence (whole entry): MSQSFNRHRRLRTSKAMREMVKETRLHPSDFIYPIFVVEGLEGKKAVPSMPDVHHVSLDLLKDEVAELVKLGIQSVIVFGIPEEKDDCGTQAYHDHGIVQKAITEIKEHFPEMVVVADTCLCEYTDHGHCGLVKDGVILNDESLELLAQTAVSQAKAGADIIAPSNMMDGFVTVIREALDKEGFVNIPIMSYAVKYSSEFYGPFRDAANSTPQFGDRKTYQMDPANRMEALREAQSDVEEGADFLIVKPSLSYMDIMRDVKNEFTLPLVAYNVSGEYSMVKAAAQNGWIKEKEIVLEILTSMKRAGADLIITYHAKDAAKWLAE
# [2] = Inhibition of Pseudomonas aeruginosa PAO1 porphobilinogen synthase by Lineweaver-Burke plot analysis
# Methanosarcina barkeri [3] = test: Activity at Methanosarcina barkeri porphobilinogen synthase
# [4] = tested on: Escherichia coli str. K-12 substr. DH10B; test: Inhibition of Escherichia coli porphobilinogen synthase assessed as enzyme activity at 10 mM relative to control; design: scale not given: the % may be the effect or the level left
# Bacillus subtilis = test: Antimicrobial activity against Bacillus subtilis JH642 up to 24 hrs by microdilution method; format: functional; conditions: JH642, 24 h
# Pseudomonas aeruginosa = test: Antimicrobial activity against Pseudomonas aeruginosa PAO1 up to 24 hrs by microdilution method; format: functional; conditions: PAO1, 24 h
# [5] = tested on: Bacillus megaterium DSM 319; test: Inhibition of Bacillus megaterium DSM319 porphobilinogen synthase assessed as enzyme activity at 10 mM relative to control; design: scale not given: the % may be the effect or the level left
# [6] = target: T2, Delta-aminolevulinic acid dehydratase (Streptomyces coelicolor) (UniProt P54919); test: Inhibition of Streptomyces coelicolor DMS 40233 porphobilinogen synthase assessed as enzyme activity at 10 mM relative to control; design: scale not given: the % may be the effect or the level left
# T2 sequence (whole entry): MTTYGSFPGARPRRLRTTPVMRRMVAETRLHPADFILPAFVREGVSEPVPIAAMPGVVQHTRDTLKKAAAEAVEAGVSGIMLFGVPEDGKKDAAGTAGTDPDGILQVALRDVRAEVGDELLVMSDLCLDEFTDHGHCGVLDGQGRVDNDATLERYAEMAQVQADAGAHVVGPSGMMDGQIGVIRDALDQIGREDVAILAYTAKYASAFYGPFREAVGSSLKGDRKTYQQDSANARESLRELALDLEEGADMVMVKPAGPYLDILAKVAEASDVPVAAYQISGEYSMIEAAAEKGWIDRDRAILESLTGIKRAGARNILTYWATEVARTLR
# [7] = target: T2, Delta-aminolevulinic acid dehydratase (Streptomyces coelicolor); test: Inhibition of Streptomyces coelicolor DMS 40233 porphobilinogen synthase assessed as enzyme activity at 5 mM relative to control; design: scale not given: the % may be the effect or the level left
# [8] = tested on: Bacillus megaterium DSM 319; test: Inhibition of Bacillus megaterium DSM319 porphobilinogen synthase assessed as enzyme activity at 5 mM relative to control; design: scale not given: the % may be the effect or the level left
# Escherichia coli [9] = test: Inhibition of Escherichia coli CSA1 porphobilinogen synthase assessed as enzyme activity at 5 mM relative to control; design: scale not given: the % may be the effect or the level left
# [10] = tested on: Pseudomonas aeruginosa PAO1; test: Activity at Pseudomonas aeruginosa PAO1 porphobilinogen synthase
# [11] = tested on: Pseudomonas aeruginosa PAO1; test: Inhibition of Pseudomonas aeruginosa PAO1 porphobilinogen synthase assessed as enzyme activity at 5 mM relative to control; design: scale not given: the % may be the effect or the level left
# Escherichia coli [12] = test: Antimicrobial activity against Escherichia coli DH10B up to 24 hrs by microdilution method; format: functional; conditions: K-12 DH10B
# [13] = tested on: Escherichia coli str. K-12 substr. DH10B; test: Inhibition of Escherichia coli porphobilinogen synthase assessed as enzyme activity at 5 mM relative to control; design: scale not given: the % may be the effect or the level left
# [14] = target: T3, Delta-aminolevulinic acid dehydratase (Streptomyces avermitilis) (UniProt Q82E74); test: Inhibition of Streptomyces avermitilis DSM 46492 porphobilinogen synthase assessed as enzyme activity at 5 mM relative to control; design: scale not given: the % may be the effect or the level left
# T3 sequence (whole entry): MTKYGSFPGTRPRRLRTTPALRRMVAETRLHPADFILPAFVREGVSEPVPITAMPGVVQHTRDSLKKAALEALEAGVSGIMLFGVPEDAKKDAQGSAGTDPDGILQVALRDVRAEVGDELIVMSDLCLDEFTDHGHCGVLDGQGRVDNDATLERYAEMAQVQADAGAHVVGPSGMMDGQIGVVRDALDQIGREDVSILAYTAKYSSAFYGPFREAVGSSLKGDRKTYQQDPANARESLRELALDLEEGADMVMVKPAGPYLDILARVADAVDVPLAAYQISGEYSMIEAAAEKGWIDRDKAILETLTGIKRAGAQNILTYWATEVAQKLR
# Escherichia coli [15] = test: Antimicrobial activity against Escherichia coli CSA1 up to 24 hrs by microdilution method; format: functional; conditions: CSA1, 24 h
# Escherichia coli [16] = test: Antimicrobial activity against Escherichia coli CSA1 at =< 40 mg/ml up to 24 hrs by microdilution method in absence of 5-aminolaevulinic acid; format: functional, organism-based
# Escherichia coli [17] = test: Antimicrobial activity against Escherichia coli CSA1 at =< 40 mg/ml up to 24 hrs by microdilution method in presence of 5-aminolaevulinic acid; format: functional, organism-based
# [18] = Inhibition of Pseudomonas aeruginosa PAO1 porphobilinogen synthase after 60 mins by spectrophotometry
# Methanosarcina barkeri [19] = test: Ratio of Kcat to Km for Methanosarcina barkeri porphobilinogen synthase
# [20] = target: T3, Delta-aminolevulinic acid dehydratase (Streptomyces avermitilis); test: Inhibition of Streptomyces avermitilis DSM 46492 porphobilinogen synthase assessed as enzyme activity at 10 mM relative to control; design: scale not given: the % may be the effect or the level left
# [21] = Inhibition of Methanosarcina barkeri porphobilinogen synthase by Lineweaver-Burke plot analysis
# Escherichia coli [22] = test: Antimicrobial activity against Escherichia coli CSA1 at =< 40 mg/ml up to 24 hrs by microdilution method in presence of 5-aminolaevulinic acid and heme; format: functional, organism-based
# Streptomyces avermitilis = test: Antimicrobial activity against Streptomyces avermitilis DSM 46492 up to 24 hrs by microdilution method; format: functional; conditions: DSM 46492, 24 h
# [23] = target: T1, Delta-aminolevulinic acid dehydratase (Bacillus subtilis); test: Inhibition of Bacillus subtilis JH642 porphobilinogen synthase assessed as enzyme activity at 10 mM relative to control; design: scale not given: the % may be the effect or the level left
# [24] = tested on: Pseudomonas aeruginosa PAO1; test: Ratio of Kcat to Km for Pseudomonas aeruginosa PAO1 porphobilinogen synthase
# [25] = tested on: Pseudomonas aeruginosa PAO1; test: Inhibition of Pseudomonas aeruginosa PAO1 porphobilinogen synthase assessed as enzyme activity at 10 mM relative to control; design: scale not given: the % may be the effect or the level left
# Streptomyces sp. A012304 [26] = test: Inhibition of Streptomyces sp. A012304 porphobilinogen synthase assessed as enzyme activity at 5 mM relative to control; design: scale not given: the % may be the effect or the level left
# Streptomyces sp. A012304 [27] = test: Inhibition of Streptomyces sp. A012304 porphobilinogen synthase assessed as enzyme activity at 10 mM relative to control; design: scale not given: the % may be the effect or the level left
# Escherichia coli [28] = test: Antimicrobial activity against Escherichia coli CSA1 at =< 40 mg/ml up to 24 hrs by microdilution method in presence of heme and absence of 5-aminolaevulinic acid; format: functional, organism-based
# [29] = Antimicrobial activity against Streptomyces sp. A012304 up to 24 hrs by microdilution method; format: functional; conditions: Streptomyces sp. A012304, 24 h
# [30] = Inhibition of Methanosarcina barkeri porphobilinogen synthase after 60 mins by spectrophotometry
# Escherichia coli [31] = test: Inhibition of Escherichia coli CSA1 porphobilinogen synthase assessed as enzyme activity at 10 mM relative to control; design: scale not given: the % may be the effect or the level left
# Priestia megaterium = test: Antimicrobial activity against Bacillus megaterium DSM319 up to 24 hrs by microdilution method; format: functional; conditions: DSM 319, 24 h
smiles,measurement,setting,value
C=C(NC(C)=O)C(=O)CCC(=O)O [ALAREMYCIN],MIC,Streptomyces coelicolor,8 mM
same,Activity,[1],61%
same,Ki,[2],1330 µM
same,Km,Methanosarcina barkeri [3],0.07 mM
same,kcat,Methanosarcina barkeri [3],0.012 s⁻¹
same,Activity,[4],< 1%
same,MIC,Bacillus subtilis,14 mM
same,MIC,Pseudomonas aeruginosa,12 mM
same,Activity,[5],< 1%
same,Activity,[6],22%
same,Activity,[7],77%
same,Activity,[8],3%
same,Activity,Escherichia coli [9],36%
same,Km,[10],0.32 mM
same,kcat,[10],16.1 s⁻¹
same,Activity,[11],92%
same,MIC,Escherichia coli [12],4 mM
same,Activity,[13],30%
same,Activity,[14],68%
same,MIC,Escherichia coli [15],10 mM
same,Activity,Escherichia coli [16],Active
same,Activity,Escherichia coli [17],Active
same,IC50,[18],2100 µM
same,kcat/Km,Methanosarcina barkeri [19],170 M⁻¹ s⁻¹
same,Activity,[20],< 1%
same,Ki,[21],1510 µM
same,Activity,Escherichia coli [22],inactive
same,MIC,Streptomyces avermitilis,8 mM
same,Activity,[23],30%
same,kcat/Km,[24],50300 M⁻¹ s⁻¹
same,Activity,[25],25%
same,Activity,Streptomyces sp. A012304 [26],90%
same,Activity,Streptomyces sp. A012304 [27],79%
same,Activity,Escherichia coli [28],inactive
same,MIC,[29],> 20 mM
same,IC50,[30],2200 µM
same,Activity,Escherichia coli [31],< 1%
same,MIC,Priestia megaterium,4 mM
